Series [1] can be described thus: Phosphate-buffered saline (PBS) solubility of compounds. As to conditions: aqueous buffer, thermodynamic from solid, PBS pH 7.5, 0.5 mg/mL, vortexed 90 min, filtered, LC-MS/MS, read-out: Solubility Range. The series is classed as physicochemical. The protocol:
PBS solutions (pH 7.5) were prepared according to the following compositions and stored at 4° C. Test compounds were dissolved in PBS (pH 7.5) at 0.5 mg/mL and vortexed for 90 min. The PBS solution was sequentially filtered through a 0.45, 1.2, […] syringe filter. Concentration of test compounds were determined using LC-MS/MS with appropriate dilution of the samples.

Series [2] concerns the target human wild type-CFTR (Homo sapiens, UniProt P13569). In words: Cell-based YFP assay. Further details: expressed in transfected cells; host or cells: CHO-K1 (Chinese hamster ovary). Particulars: CHO-K1 cells expressing human wild type-CFTR and YFP-H148Q/I152L; forskolin 20 μM = 100% activity; read-out: Cell-based YFP Assay (EC50) Concentration Range. The method, boiled down:
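CHO-K1 cells co-expressing human wild-type CFTR and YFP-H148Q/I152L halide sensor, grown 48 h at 37 °C, then in PBS. YFP quenching by I⁻ influx read at 37 °C after adding 140 mM I⁻ solution, sampled every 0.4 s for 14 s. Triplicates averaged; EC50 fitted.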

Structures are written as SMILES. ≈ marks a conversion by molar mass, not a printed value. A value given as a limit tells only on which side of the number the result lay.

Sequence of human wild type-CFTR (P13569 whole entry): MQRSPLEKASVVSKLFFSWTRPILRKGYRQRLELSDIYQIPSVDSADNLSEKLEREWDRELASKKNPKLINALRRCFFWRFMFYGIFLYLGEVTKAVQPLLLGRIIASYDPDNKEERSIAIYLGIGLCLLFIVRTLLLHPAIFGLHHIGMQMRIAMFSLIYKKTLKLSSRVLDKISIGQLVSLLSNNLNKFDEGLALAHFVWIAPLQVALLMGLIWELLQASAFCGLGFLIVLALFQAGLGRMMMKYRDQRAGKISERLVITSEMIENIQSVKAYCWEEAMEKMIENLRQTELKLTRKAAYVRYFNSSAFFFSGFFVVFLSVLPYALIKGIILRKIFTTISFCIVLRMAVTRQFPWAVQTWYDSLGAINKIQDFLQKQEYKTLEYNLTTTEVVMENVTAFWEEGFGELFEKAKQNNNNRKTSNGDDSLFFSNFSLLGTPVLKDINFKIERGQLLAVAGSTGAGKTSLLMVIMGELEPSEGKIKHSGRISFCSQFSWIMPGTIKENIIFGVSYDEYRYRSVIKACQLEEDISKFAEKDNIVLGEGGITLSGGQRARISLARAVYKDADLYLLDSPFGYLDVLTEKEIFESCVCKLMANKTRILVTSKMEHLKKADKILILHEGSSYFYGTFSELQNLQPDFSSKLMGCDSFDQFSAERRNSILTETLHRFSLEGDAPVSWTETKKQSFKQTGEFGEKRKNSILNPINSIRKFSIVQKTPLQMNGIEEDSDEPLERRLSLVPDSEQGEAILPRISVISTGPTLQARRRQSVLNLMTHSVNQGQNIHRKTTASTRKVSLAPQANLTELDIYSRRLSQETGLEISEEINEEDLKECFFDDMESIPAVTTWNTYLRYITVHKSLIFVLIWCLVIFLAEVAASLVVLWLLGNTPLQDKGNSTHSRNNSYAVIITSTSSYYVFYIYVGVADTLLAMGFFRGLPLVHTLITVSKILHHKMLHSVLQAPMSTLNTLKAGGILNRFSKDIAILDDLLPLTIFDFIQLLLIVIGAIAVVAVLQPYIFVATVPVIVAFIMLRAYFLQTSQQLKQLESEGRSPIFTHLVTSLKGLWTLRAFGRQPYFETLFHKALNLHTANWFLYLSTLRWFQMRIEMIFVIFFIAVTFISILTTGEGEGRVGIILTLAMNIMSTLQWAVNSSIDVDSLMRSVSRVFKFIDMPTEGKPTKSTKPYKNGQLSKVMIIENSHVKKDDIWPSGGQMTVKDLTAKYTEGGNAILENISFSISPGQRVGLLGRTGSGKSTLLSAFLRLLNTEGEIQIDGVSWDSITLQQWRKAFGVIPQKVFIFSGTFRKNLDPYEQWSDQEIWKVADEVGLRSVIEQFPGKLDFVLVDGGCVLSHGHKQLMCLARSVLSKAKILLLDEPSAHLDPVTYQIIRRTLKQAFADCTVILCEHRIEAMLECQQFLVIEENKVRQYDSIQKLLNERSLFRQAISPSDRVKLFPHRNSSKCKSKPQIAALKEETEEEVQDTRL

Take `COc1ccc(-c2ccnc3cc(C(=O)Nc4ccccc4)nn23)cc1OC` [Compound 1, 7-(3,4-dimethoxyphenyl)-N-phenylpyrazolo[1,5-a] pyrimidine-2-carboxamide]: the solubility at 90 min in series [1] is below 0.1 µg/mL. Moreover, the EC50 in series [2] was below 200 nM. In the case of `COC(=O)c1cccc(NC(=O)c2cc3nccc(-c4ccc(OC)c(OC)c4)n3n2)c1` [Compound 8, methyl 3-(7-(3,4-dimethoxyphenyl)pyrazolo [1,5-a]pyrimidine-2-carboxamido)benzoate], the solubility at 90 min in series [1] is below 0.1 µg/mL. On the same count and under the same terms, in the case of `COc1ccc(-c2ccnc3cc(C(=O)N[C@H]4CC[C@@H](C(=O)OC)CC4)nn23)cc1OC` [Compound 9, methyl (1S,4S)-4-(7-(3,4-dimethoxyphenyl)pyrazolo [1,5-a]pyrimidine-2-carboxamido)cyclohexane-1-carboxylate] it was 0.1 to 10 µg/mL (≈ 0.228 to 22.8 µM).

`COc1ccc(-c2ccnc3cc(C(=O)Nc4cccc(C(=O)O)c4)nn23)cc1OC` [Compound 16, 3-(7-(3,4-dimethoxyphenyl)pyrazolo[1,5-a]pyrimidine-2-carboxamido)benzoic acid]: in series [1], the solubility at 90 min is above 10 µg/mL. Besides, in series [2], the EC50 was at least 2000 nM. In the same order, the values of `COc1ccc(-c2ccnc3cc(C(=O)Nc4cccnc4)nn23)cc1OC` [Compound 18, 7-(3,4-dimethoxyphenyl)-N-(pyridin-3-yl) pyrazolo[1,5-a]pyrimidine-2-carboxamide] are below 0.1 µg/mL and 200 to 2000 nM.

For the compound `COc1ccc(-c2ccnc3cc(C(=O)N[C@H]4CC[C@@H](C(=O)O)CC4)nn23)cc1OC` [Compound 19, (1S,4S)-4-(7-(3,4-dimethoxyphenyl)pyrazolo [1,5-a]pyrimidine-2-carboxamido)cyclohexane-1-carboxylic acid], the solubility at 90 min in series [1] is above 10 µg/mL. Still for that read-out and setting: in the case of `COc1ccc(-c2ccnc3cc(C(=O)N[C@H]4CC[C@H](C(=O)O)CC4)nn23)cc1OC` [Compound 21, (1R,4R)-4-(7-(3,4-dimethoxyphenyl)pyrazolo [1,5-a]pyrimidine-2-carboxamido)cyclohexane-1-carboxylic acid] it was above 10 µg/mL. Consider `COC(=O)c1ccc(NC(=O)c2cc3nccc(-c4cc(OC)c(OC)c(OC)c4)n3n2)cc1` [Compound 32, methyl 4-(7-(3,4,5-trimethoxyphenyl)pyrazolo [1,5-a]pyrimidine-2-carboxamido)benzoate], for which the solubility at 90 min in series [1] is below 0.1 µg/mL. In series [2], the EC50 was below 200 nM. The matching figures for `CCOC(=O)COc1ccc(NC(=O)c2cc3nccc(-c4ccc(OC)c(OC)c4)n3n2)cc1` [Compound 34, ethyl 2-(4-(7-(3,4-dimethoxyphenyl)pyrazolo [1,5-a]pyrimidine-2-carboxamido)phenoxy) acetate]: below 0.1 µg/mL and below 200 nM. In the same order, the values of `COC(=O)c1ccc(NC(=O)c2cc3nccc(-c4ccc(OC)c(Cl)c4)n3n2)cc1` [Compound 39, methyl 4-(7-(3-chloro-4-methoxyphenyl)pyrazolo [1,5-a]pyrimidine-2-carboxamido)benzoate] are below 0.1 µg/mL and 200 to 2000 nM.

Take `COC(=O)[C@H](C)NC(=O)c1ccc(NC(=O)c2cc3nccc(-c4ccc(OC)c(OC)c4)n3n2)cc1` [Compound 42, methyl (4-(7-(3,4-dimethoxyphenyl)pyrazolo [1,5-a]pyrimidine-2-carboxamido)benzoyl)-L-alaninate]: the solubility at 90 min in series [1] was below 0.1 µg/mL. Moreover, the EC50 in series [2] was below 200 nM. In the same order, the values of `COC(=O)[C@H](CO)NC(=O)c1ccc(NC(=O)c2cc3nccc(-c4ccc(OC)c(OC)c4)n3n2)cc1` [Compound 43, methyl (4-(7-(3,4-dimethoxyphenyl)pyrazolo [1,5-a]pyrimidine-2-carboxamido)benzoyl)-L-serinate] are below 0.1 µg/mL and below 200 nM.

On to `COC(=O)[C@H](Cc1ccccc1)NC(=O)c1ccc(NC(=O)c2cc3nccc(-c4ccc(OC)c(OC)c4)n3n2)cc1` [Compound 46, methyl (4-(7-(3,4-dimethoxyphenyl)pyrazolo [1,5-a]pyrimidine-2-carboxamido)benzoyl)-L-phenylalaninate], for which the solubility at 90 min in series [1] was below 0.1 µg/mL. For the same compound, the EC50 in series [2] is below 200 nM. The matching figures for `COC(=O)[C@@H]1CCCN1C(=O)c1ccc(NC(=O)c2cc3nccc(-c4ccc(OC)c(OC)c4)n3n2)cc1` [Compound 47, methyl (4-(7-(3,4-dimethoxyphenyl)pyrazolo [1,5-a]pyrimidine-2-carboxamido)benzoyl)-L-prolinate]: below 0.1 µg/mL and below 200 nM. In the same order, the values of `COc1ccc(-c2ccnc3cc(C(=O)Nc4ccc(C(N)=O)cc4)nn23)cc1OC` [Compound 48, N-(4-carbamoylphenyl)-7-(3,4-dimethoxyphenyl)pyrazolo [1,5-a]pyrimidine-2-carboxamide] are below 0.1 µg/mL and below 200 nM. In the same order, the values of `COc1ccc(-c2ccnc3cc(C(=O)Nc4ccc(C(=O)N5CCN(C(=O)OC(C)(C)C)CC5)cc4)nn23)cc1OC` [Compound 51, tert-butyl 4-(4-(7-(3,4-dimethoxyphenyl)pyrazolo [1,5-a]pyrimidine-2-carboxamido)benzoyl) piperazine-1-carboxylate] are below 0.1 µg/mL and below 200 nM.

In the case of `COc1ccc(-c2ccnc3cc(C(=O)Nc4cccc(C(=O)N5CCOCC5)c4)nn23)cc1OC` [Compound 55, 7-(3,4-dimethoxyphenyl)-N-(3-(morpholine-4-carbonyl)phenyl)pyrazolo [1,5-a]pyrimidine-2-carboxamide], the solubility at 90 min in series [1] was below 0.1 µg/mL. Besides, the EC50 in series [2] is below 200 nM. For the compound `COc1ccc(-c2ccnc3cc(C(=O)Nc4cccc(C(=O)N5CCN(C(=O)OC(C)(C)C)CC5)c4)nn23)cc1OC` [Compound 56, tert-butyl 4-(3-(7-(3,4-dimethoxyphenyl)pyrazolo [1,5-a]pyrimidine-2-carboxamido)benzoyl) piperazine-1-carboxylate], the solubility at 90 min in series [1] is below 0.1 µg/mL. Besides, the EC50 in series [2] is below 200 nM. As for `COc1ccc(-c2ccnc3cc(C(=O)N4CCC(NC(=O)OC(C)(C)C)CC4)nn23)cc1OC` [Compound 100, tert-butyl (1-(7-(3,4-dimethoxyphenyl)pyrazolo[1,5-a]pyrimidine-2-carbonyl)piperidin-4-yl)carbamate], the solubility at 90 min in series [1] was in the range of 0.1 to 10 µg/mL (≈ 0.208 to 20.8 µM). Take `CCC[C@H]1CN(C(=O)c2cc3nccc(-c4ccc(OC)c(OC)c4)n3n2)CCN1` [Compound 373, (S)-(7-(3,4-dimethoxyphenyl)pyrazolo[1,5-a]pyrimidin-2-yl)(3-propylpiperazin-1-yl)methanone]: in series [2], the EC50 lay in the range of 200 to 2000 nM. On the same count and under the same terms, then `COc1ccc(-c2ccnc3cc(C(=O)N4CCN[C@@H](C5CC5)C4)nn23)cc1OC` [Compound 374, (S)-(3-cyclopropylpiperazin-1-yl)(7-(3,4-dimethoxyphenyl)pyrazolo [1,5-a]pyrimidin-2-yl)methanone], with 200 to 2000 nM; and `CC[C@H]1CN(C(=O)c2cc3nccc(-c4ccc(OC)c(OC)c4)n3n2)CCN1C(=O)c1ccccc1` [Compound 375, (S)-(4-benzoyl-3-ethylpiperazin-1-yl)(7-(3,4-dimethoxyphenyl)pyrazolo [1,5-a]pyrimidin-2-yl)methanone], with below 200 nM; and `COc1ccc(-c2ccnc3cc(C(=O)N4CCN(C(=O)c5ccccc5)[C@@H](C(C)C)C4)nn23)cc1OC` [Compound 376, (S)-(4-benzoyl-3-isopropylpiperazin-1-yl)(7-(3,4-dimethoxyphenyl)pyrazolo[1,5-a]pyrimidin-2-yl)methanone], with below 200 nM. Still for that read-out and setting: then `CCC[C@H]1CN(C(=O)c2cc3nccc(-c4ccc(OC)c(OC)c4)n3n2)CCN1C(=O)c1ccccc1` [Compound 377, (S)-(4-benzoyl-3-propylpiperazin-1-yl) (7-(3,4-dimethoxyphenyl)pyrazolo [1,5-a]pyrimidin-2-yl)methanone], with below 200 nM. Still for that read-out and setting: then `COc1ccc(-c2ccnc3cc(C(=O)N4CCN(C(=O)c5ccccc5)[C@@H](C5CC5)C4)nn23)cc1OC` [Compound 378, (S)-(4-benzoyl-3-cyclopropylpiperazin-1-yl)(7-(3,4-dimethoxyphenyl)pyrazolo[1,5-a]pyrimidin-2-yl) methanone], with below 200 nM; and `COc1ccc(-c2ccnc3cc(C(=O)N4CCN(C(=O)c5ccsc5)[C@@H](C)C4)nn23)cc1OC` [Compound 379, (S)-(7-(3,4-dimethoxyphenyl)pyrazolo[1,5-a]pyrimidin-2-yl)(3-methyl-4-(thiophene-3-carbonyl)piperazin-1-yl)methanone], with below 200 nM.

In the case of `COc1ccc(-c2ccnc3cc(C(=O)N4CCN(C(=O)c5ccccc5C)[C@@H](C)C4)nn23)cc1OC` [Compound 381, (S)-(7-(3,4-dimethoxyphenyl)pyrazolo[1,5-a]pyrimidin-2-yl) (3-methyl-4-(2-methylbenzoyl)piperazin-1-yl)methanone], the EC50 in series [2] was below 200 nM. The same measure, in the same setting: in the case of `COc1ccc(-c2ccnc3cc(C(=O)N4CCN(C(=O)c5cccnc5)[C@@H](C)C4)nn23)cc1OC` [Compound 382, (S)-(7-(3,4-dimethoxy-phenyl)pyrazolo[1,5-a]pyrimidin-2-yl) (3-methyl-4-nicotinoylpiperazin-1-yl)methanone] it was below 200 nM; in that of `COc1ccc(-c2ccnc3cc(C(=O)N4CCN(C(=O)c5ncccn5)[C@@H](C)C4)nn23)cc1OC` [Compound 383, (S)-(7-(3,4-dimethoxy-phenyl)pyrazolo[1,5-a]pyrimidin-2-yl)(3-methyl-4-(pyrimidine-2-carbonyl)piperazin-1-yl)methanone], 200 to 2000 nM.

The values are drawn from US20240199623A1 (ILDONG PHARMACEUTICAL CO., LTD., priority 2020, published 2024).
